# Reference: paper PMC5698552 (mBio, 2017)
# pKi: −log10 of the molar value.
# How the values were obtained:
# [1] = target: T1, UDP-galactopyranose mutase (BcUGM) (Botrytis cinerea, UniProt A0A384JG93); test: enzyme kinetics with purified recombinant BcUGM, varying UDP-Galp, HPLC-UV and LC-MS product detection; type: biochemical
# T1 construct: gene BCIN_05g00580
# [2] = target: T1, UDP-galactopyranose mutase (BcUGM); test: product of purified recombinant BcUGM detected by HILIC and LC-MS/MS; type: biochemical
# T1 sequence (A0A384JG93 entry or part of it): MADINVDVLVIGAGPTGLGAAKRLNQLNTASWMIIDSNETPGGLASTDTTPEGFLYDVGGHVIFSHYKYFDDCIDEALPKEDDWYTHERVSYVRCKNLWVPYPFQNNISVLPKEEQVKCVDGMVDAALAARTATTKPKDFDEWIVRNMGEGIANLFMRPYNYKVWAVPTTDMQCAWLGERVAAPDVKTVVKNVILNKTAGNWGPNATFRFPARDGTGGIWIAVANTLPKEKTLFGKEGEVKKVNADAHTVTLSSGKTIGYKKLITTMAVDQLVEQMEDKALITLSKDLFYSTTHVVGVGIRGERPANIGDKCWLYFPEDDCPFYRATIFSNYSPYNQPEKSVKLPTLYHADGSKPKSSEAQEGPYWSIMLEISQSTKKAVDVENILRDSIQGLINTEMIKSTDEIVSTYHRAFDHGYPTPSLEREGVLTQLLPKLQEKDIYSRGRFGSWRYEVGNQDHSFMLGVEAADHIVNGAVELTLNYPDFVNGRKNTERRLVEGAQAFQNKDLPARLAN
compound,measurement,setting,value
C[C@H]1O[C@H](OP(=O)(O)OP(=O)(O)OC[C@H]2O[C@@H](n3ccc(=O)[nH]c3=O)[C@H](O)[C@@H]2O)[C@H](O)[C@@H](O)C1=O [UDP-KDG],pKi,[1],3.65
O=c1ccn([C@@H]2O[C@H](COP(=O)(O)OP(=O)(O)O[C@H]3O[C@@H]([C@H](O)CO)[C@H](O)[C@H]3O)[C@@H](O)[C@H]2O)c(=O)[nH]1 [UDP-galactofuranose],product of purified recombinant BcUGM detected by HILIC and LC-MS/MS,[2],transforming UDP-galactopyranose to UDP-galactofuranose in the presence of NADPH and flavin adenine dinucleotide (FAD)
